Measurements as given in PubChem BioAssay (NCI).
Where “and” joins values, the source holds several entries; their conditions need not be identical. Equal values may be shown once.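 Test compounds were applied to cells in 96-well plates for 48 hours at 5 doses. GI50 is the concentration that inhibits growth by half. TGI marks complete inhibition of growth.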

How the values were obtained:
Experiment in all cases: NCI tumour cell line growth inhibition, 48 h
[1] = tested on: OVCAR-8 ovarian
[2] = tested on: SK-OV-3 ovarian
[3] = tested on: M14 melanoma
[4] = tested on: NCI-H460 lung
[5] = tested on: NCI-H23 lung
[6] = tested on: 786-0 renal
[7] = tested on: CCRF-CEM leukemia
[8] = tested on: SW-620 colon
[9] = tested on: A549 NSCLC
[10] = tested on: OVCAR-3 ovarian
[11] = tested on: NCI-H522 lung
[12] = tested on: SK-MEL-5 melanoma
[13] = tested on: IGROV1 ovarian
[14] = tested on: SK-MEL-2 melanoma
[15] = tested on: UACC-62 melanoma
[16] = tested on: OVCAR-4 ovarian
[17] = tested on: DLD-1 colon
[18] = tested on: SNB-19 CNS
[19] = tested on: SNB-78 CNS
[20] = tested on: HCT-15 colon
[21] = tested on: EKVX NSCLC
[22] = tested on: CAKI-1 renal
[23] = tested on: SN12C renal
[24] = tested on: SF-268 CNS
[25] = tested on: ACHN renal
[26] = tested on: UO-31 renal
[27] = tested on: SF-539 CNS
[28] = tested on: SK-MEL-28 melanoma
[29] = tested on: HOP-92 NSCLC
[30] = tested on: NCI-H226 lung
[31] = tested on: MALME-3M melanoma
[32] = tested on: KM20L2 colon
[33] = tested on: HOP-62 NSCLC
[34] = tested on: U251 CNS
[35] = tested on: HT29 colon
[36] = tested on: HCT-116 colon
[37] = tested on: SNB-75 CNS
[38] = tested on: DMS 114 small cell lung
[39] = tested on: DMS 273 small cell lung
[40] = tested on: TK-10 renal
[41] = tested on: LOX IMVI melanoma
[42] = tested on: SF-295 CNS
[43] = tested on: HOP-18 NSCLC
[44] = tested on: COLO 205 colon
[45] = tested on: RXF 393 renal
[46] = tested on: UACC-257 melanoma
[47] = tested on: MOLT-4 leukemia
[48] = tested on: HCC-2998 colon
[49] = tested on: RPMI-8226 leukemia
[50] = tested on: LXFL 529 NSCLC
[51] = tested on: KM12 colon
[52] = tested on: K-562 leukemia
[53] = tested on: SR leukemia
[54] = tested on: RXF-631 renal
[55] = tested on: HL-60(TB) leukemia
[56] = tested on: OVCAR-5 ovarian
[57] = tested on: M19-MEL melanoma
[58] = tested on: XF 498 CNS
[59] = tested on: A498 renal

Question: How did the TGI [1] turn out when COc1cc(C2c3cc4c(cc3[C@@H](NCCN3CCOCC3)C3COC(=O)[C@H]23)OCO4)cc(OC)c1O (some centres undefined) was run?
Answer: The TGI was 11.9 µM.

Question: And the GI50 [2]?
Answer: The GI50 was 1.49 µM and 3.36 µM.

Question: What about the TGI [2] of the same compound?
Answer: The TGI was 5.89 µM and 11.3 µM.

Question: What about the TGI [3] of the same compound?
Answer: Its TGI is 11.7 µM and > 17.5 µM.

Question: And the GI50 [4]?
Answer: Its GI50 is 0.051 µM and 0.174 µM.

Question: What about the TGI [4] of the same compound?
Answer: The TGI was 1.26 µM and 2.4 µM.

Question: What about the GI50 [5] of the same compound?
Answer: The GI50 was 1.17 µM and 2.45 µM.

Question: And the TGI [5]?
Answer: Its TGI is 4.89 µM and 7.21 µM.

Question: And the TGI [6]?
Answer: Its TGI is 5.11 µM and 7.93 µM.

Question: What about the TGI [7] of the same compound?
Answer: The TGI was > 75 µM.

Question: What about the TGI [8] of the same compound?
Answer: The TGI was 18.5 µM and > 17.5 µM.

Question: What about the GI50 [9] of the same compound?
Answer: The GI50 was 0.314 µM and 0.761 µM.

Question: What about the TGI [9] of the same compound?
Answer: The TGI was 2.64 µM and 4.28 µM.

Question: And the TGI [10]?
Answer: The TGI was 21.5 µM and 14.3 µM.

Question: And the TGI [11]?
Answer: The TGI was 13.1 µM and 9.66 µM.

Question: What about the GI50 [12] of the same compound?
Answer: The GI50 was 0.877 µM and 2.77 µM.

Question: And the TGI [12]?
Answer: The TGI was 1.88 µM and 12.7 µM.

Question: And the TGI [13]?
Answer: The TGI was 22.4 µM and > 17.5 µM.

Question: And the TGI [14]?
Answer: Its TGI is 14.5 µM and 11.3 µM.

Question: What about the TGI [15] of the same compound?
Answer: Its TGI is 4.99 µM and 6.06 µM.

Question: And the TGI [16]?
Answer: Its TGI is 39.3 µM and > 17.5 µM.

Question: What about the TGI [17] of the same compound?
Answer: Its TGI is 22.8 µM and > 17.5 µM.

Question: And the TGI [18]?
Answer: The TGI was > 75 µM.

Question: What about the TGI [19] of the same compound?
Answer: Its TGI is > 75 µM.

Question: And the TGI [20]?
Answer: Its TGI is 15.7 µM and 14.2 µM.

Question: And the TGI [21]?
Answer: Its TGI is 54.4 µM and > 17.5 µM.

Question: What about the TGI [22] of the same compound?
Answer: Its TGI is > 75 µM.

Question: What about the GI50 [23] of the same compound?
Answer: The GI50 was 0.764 µM and 2.13 µM.

Question: What about the TGI [23] of the same compound?
Answer: Its TGI is 4.06 µM and 7.9 µM.

Question: What about the TGI [24] of the same compound?
Answer: Its TGI is 10.2 µM.

Question: What about the GI50 [25] of the same compound?
Answer: Its GI50 is 0.264 µM and 0.679 µM.

Question: What about the TGI [25] of the same compound?
Answer: Its TGI is 1.34 µM and 2.84 µM.

Question: And the TGI [26]?
Answer: The TGI was 5.13 µM and 6.38 µM.

Question: What about the TGI [27] of the same compound?
Answer: The TGI was 2.53 µM and 3.58 µM.

Question: What about the TGI [28] of the same compound?
Answer: Its TGI is 16.6 µM and > 17.5 µM.

Question: What about the TGI [29] of the same compound?
Answer: Its TGI is 4.73 µM and 10.4 µM.

Question: What about the GI50 [30] of the same compound?
Answer: Its GI50 is 0.155 µM and 0.385 µM.

Question: What about the TGI [30] of the same compound?
Answer: The TGI was 1.29 µM and 1.64 µM.

Question: And the TGI [31]?
Answer: Its TGI is 11.2 µM and 14.2 µM.

Question: And the TGI [32]?
Answer: Its TGI is 16.7 µM and > 17.5 µM.

Question: What about the TGI [33] of the same compound?
Answer: Its TGI is 2.71 µM and 3.8 µM.

Question: And the TGI [34]?
Answer: Its TGI is 5.46 µM and 5.53 µM.

Question: What about the TGI [35] of the same compound?
Answer: Its TGI is 18.1 µM and > 17.5 µM.

Question: And the TGI [36]?
Answer: Its TGI is 15.8 µM and > 17.5 µM.

Question: And the TGI [37]?
Answer: The TGI was 1.8 µM and 11.6 µM.

Question: What about the GI50 [38] of the same compound?
Answer: Its GI50 is 1.43 µM and 2.95 µM.

Question: And the TGI [38]?
Answer: The TGI was 5.05 µM and 8.98 µM.

Question: What about the TGI [39] of the same compound?
Answer: The TGI was 7.72 µM and 5.44 µM.

Question: What about the TGI [40] of the same compound?
Answer: The TGI was 21.7 µM and > 17.5 µM.

Question: What about the TGI [41] of the same compound?
Answer: Its TGI is 7.95 µM and 5.02 µM.

Question: What about the TGI [42] of the same compound?
Answer: The TGI was 13.5 µM and 17.4 µM.

Question: And the TGI [43]?
Answer: Its TGI is 32.9 µM and > 17.5 µM.

Question: What about the GI50 [44] of the same compound?
Answer: The GI50 was 8.01 µM and 1.95 µM.

Question: What about the TGI [44] of the same compound?
Answer: The TGI was 19.4 µM and > 17.5 µM.

Question: And the TGI [45]?
Answer: The TGI was 9.33 µM and 10.4 µM.

Question: What about the TGI [46] of the same compound?
Answer: The TGI was 32.9 µM and > 17.5 µM.

Question: And the GI50 [47]?
Answer: Its GI50 is 0.137 µM and 0.402 µM.

Question: What about the TGI [47] of the same compound?
Answer: The TGI was 4.48 µM and 4.87 µM.

Question: And the TGI [48]?
Answer: Its TGI is 11.5 µM and 7.24 µM.

Question: And the GI50 [49]?
Answer: Its GI50 is 0.855 µM and 1.81 µM.

Question: What about the TGI [49] of the same compound?
Answer: The TGI was 6.58 µM and 9.59 µM.

Question: What about the TGI [50] of the same compound?
Answer: The TGI was 34.1 µM and > 17.5 µM.

Question: And the TGI [51]?
Answer: Its TGI is 12.1 µM and > 17.5 µM.

Question: What about the TGI [52] of the same compound?
Answer: The TGI was > 75 µM.

Question: And the GI50 [53]?
Answer: Its GI50 is 0.0227 µM and 0.0625 µM.

Question: And the TGI [53]?
Answer: The TGI was 11.1 µM and 1.3 µM.

Question: What does the source list for CCc1cccc(C)c1NC(=O)C1=C(C)NC(C)=C(C(=O)Nc2c(C)cccc2CC)C1c1ccc2c(c1)OCO2?
Answer: TGI [1]: > 100 µM; TGI [2]: 92.5 µM; TGI [3]: 33.8 µM; TGI [4]: 45.5 µM; TGI [5]: 31.4 µM; TGI [6]: 33.2 µM; TGI [7]: 51.2 µM; TGI [8]: 55.9 µM; TGI [9]: 43.6 µM; TGI [10]: 39.8 µM; TGI [11]: 30.1 µM; TGI [54]: 54 µM; TGI [12]: 31.9 µM; TGI [13]: 78.6 µM; TGI [55]: 57.1 µM; TGI [14]: 29.6 µM; TGI [16]: 66.1 µM; TGI [17]: 47.5 µM; TGI [18]: 96.4 µM; TGI [56]: 44.5 µM; TGI [19]: > 100 µM; TGI [21]: 58.6 µM; TGI [22]: 39.4 µM; TGI [23]: 42.6 µM; TGI [24]: 59.5 µM; TGI [25]: 29.6 µM; TGI [26]: 28.7 µM; TGI [27]: 38.6 µM; TGI [28]: 32.7 µM; TGI [29]: 59.3 µM; TGI [30]: 49.5 µM; TGI [31]: 30.5 µM; TGI [32]: 62.8 µM; TGI [33]: 36.9 µM; TGI [34]: 32.1 µM; TGI [35]: 39.4 µM; TGI [57]: 45.6 µM; TGI [37]: 91.9 µM; TGI [38]: 38.7 µM; TGI [40]: 80.1 µM; TGI [41]: 42.5 µM; TGI [42]: 43.7 µM; TGI [44]: 38.6 µM; TGI [45]: 27.2 µM; TGI [46]: 46.3 µM; TGI [58]: 31 µM; TGI [47]: 72.8 µM; TGI [48]: 33.8 µM; TGI [49]: 47.2 µM; TGI [59]: 34.6 µM; TGI [50]: 39.9 µM; TGI [51]: 30.9 µM; TGI [52]: 92.3 µM
